# Measured values from ChEMBL document CHEMBL1649094, “First Selective CYP11B1 Inhibitors for the Treatment of Cortisol-Dependent Diseases” (ACS Med Chem Lett, 2011).
# Legend:
# [1] = species: Homo sapiens; assay: Selectivity index, ratio of IC50 for human CYP11B2 to IC50 for human CYP11B1
# [2] = target: T1, Cytochrome P450 11B1, mitochondrial (Homo sapiens, UniProt P15538); assay: Inhibition of human CYP11B1 expressed in hamster V79MZ cells using 11-deoxycorticosterone substrate; assay type: cell-based
# T1 sequence (P15538 whole entry): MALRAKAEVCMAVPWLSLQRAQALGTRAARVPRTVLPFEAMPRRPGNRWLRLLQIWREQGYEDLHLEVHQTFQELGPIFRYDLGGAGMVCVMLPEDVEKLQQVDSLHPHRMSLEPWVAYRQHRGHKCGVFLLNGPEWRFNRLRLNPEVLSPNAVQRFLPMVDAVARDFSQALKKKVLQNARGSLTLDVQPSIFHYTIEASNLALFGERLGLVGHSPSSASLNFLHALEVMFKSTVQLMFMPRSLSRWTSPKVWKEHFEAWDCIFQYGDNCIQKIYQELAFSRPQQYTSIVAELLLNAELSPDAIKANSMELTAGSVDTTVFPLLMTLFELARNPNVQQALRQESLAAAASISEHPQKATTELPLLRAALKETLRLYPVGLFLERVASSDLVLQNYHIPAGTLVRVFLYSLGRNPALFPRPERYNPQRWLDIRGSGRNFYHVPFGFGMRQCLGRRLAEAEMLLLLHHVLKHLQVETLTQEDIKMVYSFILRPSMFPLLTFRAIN
# [3] = target: T2, Cytochrome P450 11B2, mitochondrial (Homo sapiens, UniProt P19099); assay: Inhibition of human CYP11B2 expressed in hamster V79MZ cells using 11-deoxycorticosterone substrate; assay type: cell-based
# T2 sequence (P19099 whole entry): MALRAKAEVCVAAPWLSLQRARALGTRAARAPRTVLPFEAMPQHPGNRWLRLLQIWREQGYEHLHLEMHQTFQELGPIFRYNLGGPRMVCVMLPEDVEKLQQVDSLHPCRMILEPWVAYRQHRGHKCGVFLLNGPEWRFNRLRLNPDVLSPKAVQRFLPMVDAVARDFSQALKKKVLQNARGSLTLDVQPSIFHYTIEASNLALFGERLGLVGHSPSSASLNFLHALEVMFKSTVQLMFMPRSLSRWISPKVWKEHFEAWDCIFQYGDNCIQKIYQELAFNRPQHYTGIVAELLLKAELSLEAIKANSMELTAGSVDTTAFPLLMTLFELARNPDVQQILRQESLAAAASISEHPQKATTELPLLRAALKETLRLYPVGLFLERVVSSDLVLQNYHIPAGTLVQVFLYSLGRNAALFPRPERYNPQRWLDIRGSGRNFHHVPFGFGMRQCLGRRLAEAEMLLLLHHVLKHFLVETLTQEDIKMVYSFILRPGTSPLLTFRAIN
# [4] = target: T3, Steroid 17-alpha-hydroxylase/17,20 lyase (Homo sapiens, UniProt P05093); assay: (§1) Inhibition of human recombinant CYP17 expressed in Escherichia coli at 2 uM using progesterone substrate; settings: 2 µM
# T3 sequence (P05093 whole entry): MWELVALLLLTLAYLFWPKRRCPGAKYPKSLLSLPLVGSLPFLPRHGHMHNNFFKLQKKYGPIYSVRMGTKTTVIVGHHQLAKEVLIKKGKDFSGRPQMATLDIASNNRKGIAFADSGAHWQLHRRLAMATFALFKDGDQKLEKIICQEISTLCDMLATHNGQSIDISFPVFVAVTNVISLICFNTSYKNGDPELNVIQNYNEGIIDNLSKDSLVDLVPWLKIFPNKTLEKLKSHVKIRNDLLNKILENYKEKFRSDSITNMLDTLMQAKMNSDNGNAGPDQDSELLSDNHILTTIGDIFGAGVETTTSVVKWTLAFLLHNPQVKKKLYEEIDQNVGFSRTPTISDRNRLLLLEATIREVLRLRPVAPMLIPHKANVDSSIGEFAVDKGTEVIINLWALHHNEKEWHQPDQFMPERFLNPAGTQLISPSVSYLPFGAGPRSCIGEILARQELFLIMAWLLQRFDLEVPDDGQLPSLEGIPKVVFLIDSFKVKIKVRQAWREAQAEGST
# [5] = target: T4, CYP19 (aromatase) (Homo sapiens, UniProt P11511); assay: Inhibition of human placental microsomes CYP19 at 500 nM using androstenedione substrate; settings: human placental microsomes, probe androstenedione
# T4 sequence (P11511 whole entry): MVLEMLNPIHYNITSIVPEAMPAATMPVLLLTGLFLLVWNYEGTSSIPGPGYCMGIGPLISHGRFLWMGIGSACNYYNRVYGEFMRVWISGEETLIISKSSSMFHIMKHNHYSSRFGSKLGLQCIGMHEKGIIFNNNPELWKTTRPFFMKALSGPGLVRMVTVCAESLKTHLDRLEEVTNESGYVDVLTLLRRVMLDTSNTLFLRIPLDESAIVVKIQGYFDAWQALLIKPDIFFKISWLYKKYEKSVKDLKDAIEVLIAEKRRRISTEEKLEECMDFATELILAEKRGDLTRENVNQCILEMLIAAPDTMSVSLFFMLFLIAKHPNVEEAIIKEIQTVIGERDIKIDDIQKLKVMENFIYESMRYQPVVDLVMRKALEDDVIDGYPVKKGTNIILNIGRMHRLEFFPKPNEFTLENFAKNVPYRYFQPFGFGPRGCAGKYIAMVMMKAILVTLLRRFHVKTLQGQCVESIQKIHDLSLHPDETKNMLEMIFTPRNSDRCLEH
# [6] = target: T5, CYP17 (Homo sapiens, UniProt P05093); assay: as §1; settings: recombinant human CYP17 expressed in Escherichia coli, probe progesterone
# T5 sequence (P05093 whole entry): T3 sequence (P05093 whole entry)
Structure (SMILES),Ratio IC50 [1],IC50 [2] [nM],IC50 [3] [nM],inhibition (INH) [4],inhibition at 0.5 µM [5] [%],inhibition at 2 µM [6] [%]
Cc1c(C)c(C)c(Cn2ccnc2)c(C)c1C,4.6,5,23,Not Active,12,
Cc1cc(C)cc(Cn2ccnc2)c1,2.4,32,77,Not Active,38,
c1cn(CC23CC4CC(CC(C4)C2)C3)cn1,5.9,5,30,,12,
Cc1ccccc1Cn1ccnc1,1,61,62,Not Active,12,
c1ccc2c(c1)ncn2CC12CC3CC(CC(C3)C1)C2,,75,,Not Active,12,
c1ccc(C(CCn2ccnc2)(c2ccccc2)c2ccccc2)cc1,3.6,80,290,Not Active,38,
c1ccc(C(Cn2ccnc2)(c2ccccc2)c2ccccc2)cc1,2,4,8,Not Active,38,
Cc1cccc(Cn2ccnc2)c1,2.3,48,110,Not Active,12,
c1ccc(C(c2ccccc2)(c2ccccc2)n2ccnc2)cc1,3.4,3,11,Not Active,38,
c1ccc(-c2csc(Cn3ccnc3)c2)cc1,15,19,277,,72,

# Further lines, results first:
Ratio IC50 [1],IC50 [2] [nM],IC50 [3] [nM],inhibition (INH) [4],inhibition at 0.5 µM [5] [%],inhibition at 2 µM [6] [%],Structure (SMILES)
5.8,46,265,Not Active,38,,c1ccc(-c2cccc(Cn3ccnc3)c2)cc1
2.6,15,39,Not Active,38,,c1ccc(-c2ccccc2Cn2ccnc2)cc1
8.1,46,372,,38,0,c1ccc(-c2ccc(Cn3ccnc3)o2)cc1
20,32,637,,5,40,c1ccc(-c2ccc(Cn3ccnc3)cc2)cc1
8.2,43,353,,12,21,c1ccc(-c2ccc(Cn3ccnc3)s2)cc1
2.6,128,332,,12,52,c1ccc(-c2cc(Cn3ccnc3)cc(-c3ccccc3)c2)cc1
18,,,,0,,c1ccc(-c2ccc(Cn3ccnc3)cn2)cc1
